Assay results reported in DBAASP.
Converted amounts (≈) assume the structure as drawn. “And” between values parts separate entries of the source, which are not always exact repeats. Identical values can stand only once.

How the values were obtained:
Assay in all cases: ≥ marks a high value that may be exact or a test limit, other limits are often not marked, values filed in µg/mL are converted to µM
[1] = test system: Pseudomonas aeruginosa ATCC 27853
[2] = test system: Salmonella enterica subsp. enterica serovar Choleraesuis CVCC 503
[3] = test system: Candida tropicalis CGMCC 2.1975
[4] = test system: Pseudomonas aeruginosa PAO1
[5] = test system: Enterococcus faecalis ATCC 29212
[6] = test system: Candida albicans CGMCC 2.2086
[7] = test system: Escherichia coli UB1005
[8] = test system: Candida albicans
[9] = test system: Staphylococcus aureus ATCC 43300
[10] = test system: Staphylococcus epidermidis ATCC 12228
[11] = test system: Staphylococcus aureus ATCC 29213
[12] = test system: Staphylococcus aureus ATCC 25923
[13] = test system: Candida parapsilosis CGMCC 2.3989
[14] = test system: Salmonella enterica subsp. enterica serovar Typhimurium C77-31
[15] = test system: Salmonella enterica subsp. enterica serovar Typhimurium ATCC 14028
[16] = test system: Staphylococcus aureus NCTC 12493
[17] = test system: Klebsiella pneumoniae ATCC 43816
[18] = test system: Escherichia coli NCTC 10418
[19] = test system: Candida albicans NCYC 1467
[20] = test system: Enterococcus faecalis NCTC 12697
[21] = test system: Staphylococcus aureus NCTC 10788
[22] = test system: Escherichia coli K88
[23] = test system: Escherichia coli K99
[24] = test system: Salmonella enterica subsp. enterica serovar Pullorum ATCC 7913
[25] = test system: Escherichia coli 078
[26] = test system: Pseudomonas aeruginosa H1001
[27] = test system: Candida albicans ATCC 24433
[28] = test system: Escherichia coli ATCC 25922

SMILES | MIC [1] [µM] | MIC [3] [µM] | MIC [7] [µM] | MIC [9] [µM] | MIC [10] [µM] | MIC [11] [µM] | MIC [12] [µM] | MIC [13] [µM] | MIC [14] [µM] | MIC [15] [µM] | MIC [16] [µM] | MIC [17] [µM] | MIC [18] [µM] | MIC [19] [µM] | MIC [20] [µM] | MIC [21] [µM] | also measured
CC(C)C[C@H](NC(=O)[C@H](CCCCN)NC(=O)[C@H](CCCCN)NC(=O)[C@H](CC(C)C)NC(=O)[C@H](CCCN=C(N)N)NC(=O)[C@H](CS)NC(=O)[C@H](C)NC(=O)[C@H](CC(C)C)NC(=O)[C@H](CCCCN)NC(=O)[C@H](CCCCN)NC(=O)[C@H](CC(C)C)NC(=O)[C@H](CCCN=C(N)N)NC(=O)[C@H](CS)NC(=O)[C@H](C)NC(=O)[C@H](CC(C)C)NC(=O)[C@H](CCCCN)NC(=O)[C@H](CCCCN)NC(=O)[C@@H](N)CC(C)C)C(=O)N[C@@H](C)C(=O)N[C@@H](CS)C(=O)N[C@@H](CCCN=C(N)N)C(N)=O [LKKLACRLKKLACRLKKLACR] | 4 (≈ 9.83 µg/mL) | 1 (≈ 2.46 µg/mL) | 2 (≈ 4.91 µg/mL) | 4 (≈ 9.83 µg/mL) | 16 (≈ 39.3 µg/mL) | 8 (≈ 19.7 µg/mL) | 16 (≈ 39.3 µg/mL) | 8 (≈ 19.7 µg/mL) | 8 (≈ 19.7 µg/mL) | 4 (≈ 9.83 µg/mL) |  |  |  |  |  |  | MIC [2]: 2 µM (≈ 4.91 µg/mL); MIC [4]: 4 µM (≈ 9.83 µg/mL); MIC [5]: 16 µM (≈ 39.3 µg/mL); MIC [6]: 8 µM and 16 µM; MIC [8]: 4 µM (≈ 9.83 µg/mL)
CC[C@H](C)[C@H](NC(=O)[C@H](CCCN=C(N)N)NC(=O)[C@H](CCCN=C(N)N)NC(=O)[C@@H]1CCCN1C(=O)[C@@H]1CCCN1C(=O)[C@H](CCCN=C(N)N)NC(=O)[C@@H]1CCCN1C(=O)[C@H](CCCN=C(N)N)NC(=O)[C@@H]1CCCN1C(=O)[C@H](CC(C)C)NC(=O)[C@H](Cc1ccc(O)cc1)NC(=O)[C@@H]1CCCN1C(=O)[C@@H]1CCCN1C(=O)[C@H](CCCCN)NC(=O)[C@H](CC(=O)O)NC(=O)[C@@H](N)C(C)C)C(=O)N[C@@H](Cc1ccc(O)cc1)C(=O)N[C@@H](CCCCN)C(=O)N[C@@H](CCCN=C(N)N)C(=O)NCC(=O)O [VDKPPYLPRPRPPRRIYKRG] |  |  |  |  |  |  |  |  |  |  |  |  |  |  |  |  | MIC [26]: 0.106 µM (≈ 0.26 µg/mL)
CC[C@H](C)[C@@H]1NC(=O)[C@H](C)NC(=O)[C@@H](NC(=O)[C@H](Cc2ccccc2)NC(=O)[C@H](Cc2c[nH]c3ccccc23)NC(=O)[C@H](CCCCN)NC(=O)[C@H](Cc2c[nH]c3ccccc23)NC(=O)[C@@H]2CCCN2C(=O)[C@H](CC(C)C)NC(=O)[C@H](Cc2ccccc2)NC(=O)[C@@H](N)CCCCN)CSSC[C@@H](C(=O)O)NC(=O)[C@H](CCCCN)NC(=O)[C@H](CCCCN)NC(=O)[C@H]([C@@H](C)O)NC1=O [KFLPWKWFCAITKKC] | 64 (≈ 121 µg/mL) |  |  |  |  |  |  |  |  |  | 8 (≈ 15.2 µg/mL) | ≥ 32 | 16 (≈ 30.4 µg/mL) | 16 (≈ 30.4 µg/mL) | ≥ 256 | 8 (≈ 15.2 µg/mL) | 
CC(C)C[C@H](NC(=O)[C@H](Cc1ccc(O)cc1)NC(=O)[C@@H]1CCCN1C(=O)[C@@H]1CCCN1C(=O)[C@H](CCCCN)NC(=O)[C@H](CC(=O)O)NC(=O)[C@@H](N)C(C)C)C(=O)N1CCC[C@H]1C(=O)N[C@@H](CCCN=C(N)N)C(=O)N1CCC[C@H]1C(=O)N[C@@H](CCCN=C(N)N)C(=O)N1CCC[C@H]1C(=O)N1CCC[C@H]1C(=O)N[C@@H](CCCN=C(N)N)C(=O)N[C@@H](CCCN=C(N)N)C(=O)N[C@@H](CCCCN)C(=O)N[C@@H](Cc1ccc(O)cc1)C(=O)N[C@@H](CC(N)=O)C(=O)N[C@@H](CCCN=C(N)N)C(=O)NCC(=O)O [VDKPPYLPRPRPPRRKYNRG] |  |  |  |  |  |  |  |  |  |  |  |  |  |  |  |  | MIC [26]: 0.0487 µM (≈ 0.12 µg/mL)

Continued, in another order:

MIC [1] [µM] | MIC [3] [µM] | MIC [7] [µM] | MIC [9] [µM] | MIC [10] [µM] | MIC [11] [µM] | MIC [12] [µM] | MIC [13] [µM] | MIC [14] [µM] | MIC [15] [µM] | MIC [16] [µM] | MIC [17] [µM] | MIC [18] [µM] | MIC [19] [µM] | MIC [20] [µM] | MIC [21] [µM] | SMILES | also measured
32 (≈ 82.2 µg/mL) |  |  |  |  |  |  |  |  |  | 16 (≈ 41.1 µg/mL) | ≥ 128 | 8 (≈ 20.5 µg/mL) | 16 (≈ 41.1 µg/mL) | 8 (≈ 20.5 µg/mL) | 8 (≈ 20.5 µg/mL) | CC(C)C[C@H](NC(=O)[C@H](CCC(N)=O)NC(=O)[C@H](CCC(N)=O)NC(=O)[C@H](C)NC(=O)CNC(=O)[C@H](C)NC(=O)[C@H](CCCCN)NC(=O)CNC(=O)[C@@H](NC(=O)[C@H](CCC(N)=O)NC(=O)[C@H](CCCCN)NC(=O)[C@H](C)NC(=O)[C@H](CC(C)C)NC(=O)[C@H](Cc1ccc(O)cc1)NC(=O)[C@H](CCCCN)NC(=O)[C@H](C)NC(=O)CNC(=O)[C@H](C)NC(=O)[C@H](CCCCN)NC(=O)[C@H](Cc1ccccc1)NC(=O)[C@H](CC(C)C)NC(=O)[C@H](CO)NC(=O)[C@H](CO)NC(=O)[C@H](Cc1ccccc1)NC(=O)CN)C(C)C)C(N)=O [GFSSLFKAGAKYLAKQVGKAGAQQL] | 
> 128 | ≥ 128 | 16 (≈ 22.2 µg/mL) | > 128 | > 128 | > 128 | > 128 | ≥ 128 | ≥ 32 | 32 (≈ 44.3 µg/mL) |  |  |  |  |  |  | CC[C@H](C)[C@H](NC(=O)[C@H](CCCN=C(N)N)NC(=O)[C@H](C)NC(=O)[C@H](C)N)C(=O)N[C@H](C(=O)N[C@@H](CC(C)C)C(=O)N[C@@H](CCCN=C(N)N)C(=O)N[C@@H](CC(N)=O)C(=O)N[C@@H](CCCN=C(N)N)C(=O)N[C@@H](Cc1ccccc1)C(=O)N[C@@H](CCCN=C(N)N)C(N)=O)[C@@H](C)CC [AARIILRNRFR] | MIC [22]: ≥ 32 µM; MIC [23]: 16 µM (≈ 22.2 µg/mL); MIC [24]: 16 µM (≈ 22.2 µg/mL); MIC [6]: ≥ 128 µM; MIC [25]: 16 µM (≈ 22.2 µg/mL)
16 (≈ 39.3 µg/mL) | 2 (≈ 4.91 µg/mL) | 2 (≈ 4.91 µg/mL) | 32 (≈ 78.6 µg/mL) | > 64 | > 64 | > 64 | 8 (≈ 19.7 µg/mL) | ≥ 64 | 32 (≈ 78.6 µg/mL) |  |  |  |  |  |  | CC(C)C[C@H](NC(=O)[C@H](CCCN=C(N)N)NC(=O)[C@H](C)NC(=O)[C@H](CS)NC(=O)[C@H](CC(C)C)NC(=O)[C@H](CCCCN)NC(=O)[C@H](CCCCN)NC(=O)[C@H](CC(C)C)NC(=O)[C@H](CCCN=C(N)N)NC(=O)[C@H](C)NC(=O)[C@H](CS)NC(=O)[C@H](CC(C)C)NC(=O)[C@H](CCCCN)NC(=O)[C@H](CCCCN)NC(=O)[C@@H](N)CC(C)C)C(=O)N[C@@H](CCCCN)C(=O)N[C@@H](CCCCN)C(=O)N[C@@H](CC(C)C)C(=O)N[C@@H](CS)C(=O)N[C@@H](C)C(=O)N[C@@H](CCCN=C(N)N)C(N)=O [LKKLCARLKKLCARLKKLCAR] | MIC [2]: 8 µM (≈ 19.7 µg/mL); MIC [4]: 16 µM (≈ 39.3 µg/mL); MIC [5]: > 64 µM; MIC [8]: 5.66 µM (≈ 13.9 µg/mL)
 |  |  |  |  |  |  |  |  |  | ≥ 512 | ≥ 512 | ≥ 512 | ≥ 512 | ≥ 512 | ≥ 512 | CC[C@H](C)[C@H](NC(=O)[C@H](C)NC(=O)[C@H](C)NC(=O)[C@@H]1CCCN1C(=O)[C@@H](NC(=O)[C@H](CC(C)C)NC(=O)[C@H](CCCCN)NC(=O)CNC(=O)[C@H](C)NC(=O)[C@@H](NC(=O)[C@H](CCCCN)NC(=O)[C@H](CC(C)C)NC(=O)[C@@H](NC(=O)[C@H](C)NC(=O)CNC(=O)[C@H](CC(C)C)NC(=O)[C@@H](N)Cc1ccccc1)C(C)C)C(C)C)C(C)C)C(=O)O [FLGAVLKVAGKLVPAAI] | 
 |  |  |  | 12.5 (≈ 24.8 µg/mL) |  |  |  |  |  |  |  |  |  |  |  | CC[C@H](C)[C@H](NC(=O)CNC(=O)[C@@H](NC(=O)[C@H](C)NC(=O)[C@@H](NC(=O)[C@H](Cc1cnc[nH]1)NC(=O)[C@@H]1CCCN1C(=O)[C@@H](NC(=O)[C@H](CC(C)C)NC(=O)[C@H](CO)NC(=O)[C@H](CC(C)C)NC(=O)[C@@H](N)Cc1ccccc1)[C@@H](C)CC)[C@@H](C)CC)[C@@H](C)O)C(=O)N[C@@H](C)C(=O)N[C@@H](C)C(=O)N[C@@H](CC(C)C)C(=O)N[C@@H](C)C(=O)N[C@@H](CCCCN)C(=O)N[C@@H](Cc1cnc[nH]1)C(=O)N[C@@H](CC(C)C)C(N)=O [FLSLIPHIATGIAALAKHL] | MIC [27]: ≥ 100 µM; MIC [28]: 50 µM (≈ 99.3 µg/mL)
